Biological target: T1, CYP2B6 (Homo sapiens, UniProt P20813)
T1 sequence (P20813 1-491): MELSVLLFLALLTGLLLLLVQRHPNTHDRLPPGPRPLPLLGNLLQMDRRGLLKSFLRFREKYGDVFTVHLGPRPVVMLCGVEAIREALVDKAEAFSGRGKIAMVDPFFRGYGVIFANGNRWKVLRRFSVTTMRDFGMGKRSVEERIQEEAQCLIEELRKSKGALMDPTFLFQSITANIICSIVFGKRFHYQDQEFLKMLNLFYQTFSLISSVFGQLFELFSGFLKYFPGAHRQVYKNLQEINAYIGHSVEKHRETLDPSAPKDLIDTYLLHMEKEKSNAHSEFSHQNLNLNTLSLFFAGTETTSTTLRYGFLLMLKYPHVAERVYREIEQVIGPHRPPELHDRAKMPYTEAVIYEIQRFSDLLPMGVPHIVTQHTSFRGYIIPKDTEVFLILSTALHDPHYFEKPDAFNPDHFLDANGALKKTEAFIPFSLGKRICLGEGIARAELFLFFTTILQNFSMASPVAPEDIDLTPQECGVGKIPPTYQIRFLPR
Test: Direct inhibition of CYP2B6 (Bupropion hydroxylase) activity in pooled human liver microsomes
Conditions: pH 7.4, probe Bupropion (hydroxylation to hydroxyBupropion)
Experimental: The total amount of organic solvent was ≦1%. Each incubation included 0.1 M phosphate buffer (pH 7.4), substrate, inhibitor and microsomal protein in a final volume of approximately 0.5 mL. Reactions were initiated by addition of NADPH (1 mM final concentration) and incubated for the indicated times at 37° C. with gentle agitation.
Control incubations included positive inhibitor control samples for direct inhibition as well as samples without NADPH. All reactions were terminated by the addition of organic solvent, and internal standard was added (when appropriate), and samples were mixed and centrifuged at approximately 3000 rpm for 10 minutes. The organic layer was transferred to a clean tube and evaporated to dryness at about 40° C. under nitrogen. The sample was reconstituted and analyzed by LC MS/MS.
Incubations to determine CYP2B6-mediated conversion of Bupropion to hydroxyBupropion (OHBP) in microsomal preparations were terminated by addition of 2.5 mL isoamyl alcohol: ethyl acetate (1:100, v:v). The internal standard, hydroxyBupropion-d6, and a saturated sodium chloride solution (0.25 mL) were added to all samples. […]
Reaction velocities (V) were calculated using Equation 1:
V(nmol/min/mg)=calculated ng/mL×0.5mL/(MW ng/nmol)/min/mg Equation 1
Percentage of remaining activity was determined using the following equation: […]

**Q.** How did the activity at 75 μM turn out when `S=P(N1CC1)(N1CC1)N1CC1` [Positive Control, ThioTEPA] was run?
**A.** 22.8%
